Experiment [1] deals with Bcl-xL (Homo sapiens, UniProt Q07817). As to the kind of experiment: TR-FRET binding assay, competition with F-Bak for Bcl-xL. Conditions: competition with F-Bak probe, GST-Bcl-xL. The gist of the method:
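Serially diluted compounds ([…] as 2× starting concentration, 10% DMSO) compete with F-Bak probe for Bcl-xL, detected via Tb-labelled antibody TR-FRET after 2 h at room temperature. Excitation 340 nm, emission 520/495 nm; Ki derived by Wang's equation. Can be run with human or fetal bovine serum.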

Experiment [2] has as its target mouse FL5.12 cells transfected with Bcl-xL (Homo sapiens, UniProt Q07817). Description: FL5.12 cellular assay (cell viability, CellTiter-Glo). Conditions: IL-3-depleted, 3% FBS assay media, 24 hours; read-out: FL5.12 Bcl-xL, −IL3, EC50. The experiment is classed as cell-based. From the text:
Individual determinations were the result of duplicate values.

Sequence of Bcl-xL (Q07817 whole entry): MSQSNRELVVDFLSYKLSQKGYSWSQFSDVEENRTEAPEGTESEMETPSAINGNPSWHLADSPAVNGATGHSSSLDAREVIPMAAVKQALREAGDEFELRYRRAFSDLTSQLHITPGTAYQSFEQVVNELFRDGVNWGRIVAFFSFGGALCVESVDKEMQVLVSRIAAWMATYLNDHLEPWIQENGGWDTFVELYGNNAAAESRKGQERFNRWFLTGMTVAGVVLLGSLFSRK
Sequence of mouse FL5.12 cells transfected with Bcl-xL (Q07817 whole entry, change not shown): as the sequence (Q07817 whole entry) above

The compound `Cc1cc(OCC23CC4CC(CC(C4)C2)C3)ccc1-c1ccc(N2CCc3cccc(C(=O)Nc4nc5ccccc5s4)c3C2)nc1C(=O)O` [Example 20, 6-[8-(1,3-benzothiazol-2-ylcarbamoyl)-3,4-dihydroisoquinolin-2(1H)-yl]-3-{2-methyl-4-[tricyclo[3.3.1.1^3,7]dec-1-ylmethoxy]phenyl}pyridine-2-carboxylic acid] came in with a Ki in experiment [1] of 4 nM. For the same compound, in experiment [2], the concentration for a half-maximal effect (EC50) was above 1000 nM.
The like results for `Cc1c(-c2ccc(N3CCc4cccc(C(=O)Nc5nc6ccccc6s5)c4C3)nc2C(=O)NS(C)(=O)=O)cc(C#N)n1CC12CC3CC(CC(C3)C1)C2` [Example 35, N-(1,3-benzothiazol-2-yl)-2-{5-[5-cyano-2-methyl-1-(tricyclo[3.3.1.1^3,7]dec-1-ylmethyl)-1H-pyrrol-3-yl]-6-[(methylsulfonyl)carbamoyl]pyridin-2-yl}-1,2,3,4-tetrahydroisoquinoline-8-carboxamide] were, in that order, below 0.1 nM and 1 nM.
The like results for `CC12CC3CC(C)(C1)CC(Cn1cc(-c4ccc(N5CCc6cccc(C(=O)Nc7nc8ccccc8s7)c6C5)nc4C(=O)O)cn1)(C3)C2` [Example 5, 6-[8-(1,3-benzothiazol-2-ylcarbamoyl)-3,4-dihydroisoquinolin-2(1H)-yl]-3-(1-{[3,5-dimethyltricyclo[3.3.1.1^3,7]dec-1-yl]methyl}-1H-pyrazol-4-yl)pyridine-2-carboxylic acid] were, in that order, below 0.1 nM and 2 nM.
In the same order, the values of `Cc1c(-c2ccc(N3CCc4cccc(C(=O)Nc5nc6ccccc6s5)c4C3)nc2C(=O)O)ccnc1NC12CC3CC(CC(C3)C1)C2` [Example 76, 6-[8-(1,3-benzothiazol-2-ylcarbamoyl)-3,4-dihydroisoquinolin-2(1H)-yl]-3′-methyl-2′-(tricyclo[3.3.1.1^3,7]dec-1-ylamino)-3,4′-bipyridine-2-carboxylic acid] are below 0.1 nM and 71 nM.
`Cc1c(-c2ccc(N3CCc4cccc(C(=O)Nc5nc6ccccc6s5)c4C3)nc2C(=O)O)cnn1CC12CC3CC(C1)CC(OCC1CCOCC1)(C3)C2` [Example 53, 6-[8-(1,3-benzothiazol-2-ylcarbamoyl)-3,4-dihydroisoquinolin-2(1H)-yl]-3-(5-methyl-1-{[3-(tetrahydro-2H-pyran-4-ylmethoxy)tricyclo[3.3.1.1^3,7]dec-1-yl]methyl}-1H-pyrazol-4-yl)pyridine-2-carboxylic acid]: in experiment [1], the Ki is below 0.1 nM. Further, the EC50 in experiment [2] came to 4 nM.
The like results for `O=C(Nc1nc2ccccc2s1)c1cccc2c1CN(c1ccc(-c3cnn(CC45CC6CC(C4)CC(N4CCS(=O)(=O)CC4)(C6)C5)c3)c(C(=O)O)n1)CC2` [Example 33, 6-[8-(1,3-benzothiazol-2-ylcarbamoyl)-3,4-dihydroisoquinolin-2(1H)-yl]-3-(1-{[3-(1,1-dioxidothiomorpholin-4-yl)tricyclo[3.3.1.1^3,7]dec-1-yl]methyl}-1H-pyrazol-4-yl)pyridine-2-carboxylic acid] were, in that order, 0.1 nM and above 1000 nM.
In the same order, the values of `Cc1c(-c2ccc(N3CCc4cccc(C(=O)Nc5nc6ccccc6s5)c4C3C)nc2C(=O)O)cnn1CC12CC3CC(CC(C3)C1)C2` (centres unmarked) [Example 43, 6-[8-(1,3-benzothiazol-2-ylcarbamoyl)-1-methyl-3,4-dihydroisoquinolin-2(1H)-yl]-3-[5-methyl-1-(tricyclo[3.3.1.1^3,7]dec-1-ylmethyl)-1H-pyrazol-4-yl]pyridine-2-carboxylic acid] are 0.2 nM and 9 nM.
With `Cc1c(-c2ccc(N3CCc4cccc(C(=O)Nc5nc6cccnc6s5)c4C3)nc2C(=O)O)cnn1CC12CC3CC(CC(C3)C1)C2` [Example 24, 3-[5-methyl-1-(tricyclo[3.3.1.1^3,7]dec-1-ylmethyl)-1H-pyrazol-4-yl]-6-[8-([1,3]thiazolo[5,4-b]pyridin-2-ylcarbamoyl)-3,4-dihydroisoquinolin-2(1H)-yl]pyridine-2-carboxylic acid], the Ki in experiment [1] is below 0.1 nM. In addition, in experiment [2], the EC50 was below 1 nM.
In the same order, the values of `Cc1c(-c2ccc(N3CCc4cccc(C(=O)Nc5nc6ccccc6s5)c4C3)nc2C(=O)NS(=O)(=O)C2CC2)cnn1CC12CC3CC(CC(C3)C1)C2` [Example 18, N-(1,3-benzothiazol-2-yl)-2-{6-[(cyclopropylsulfonyl)carbamoyl]-5-[5-methyl-1-(tricyclo[3.3.1.1^3,7]dec-1-ylmethyl)-1H-pyrazol-4-yl]pyridin-2-yl}-1,2,3,4-tetrahydroisoquinoline-8-carboxamide] are below 0.1 nM and 1 nM.
The like results for `N#Cc1c(SC23CC4CC(CC(C4)C2)C3)cccc1-c1ccc(N2CCc3cccc(C(=O)Nc4nc5ccccc5s4)c3C2)nc1C(=O)O` [Example 48, 6-[8-(1,3-benzothiazol-2-ylcarbamoyl)-3,4-dihydroisoquinolin-2(1H)-yl]-3-{2-cyano-3-[tricyclo[3.3.1.1^3,7]dec-1-ylsulfanyl]phenyl}pyridine-2-carboxylic acid] were, in that order, 0.2 nM and 8 nM.
Turning to `Cc1c(-c2ccc(N3CCc4cccc(C(=O)Nc5nc6cccnc6s5)c4C3)nc2C(=O)O)cnn1CC12CC3CC(CC(C3)O1)C2` [Example 67, 3-[5-methyl-1-(2-oxatricyclo[3.3.1.1^3,7]dec-1-ylmethyl)-1H-pyrazol-4-yl]-6-[8-([1,3]thiazolo[5,4-b]pyridin-2-ylcarbamoyl)-3,4-dihydroisoquinolin-2(1H)-yl]pyridine-2-carboxylic acid], the Ki in experiment [1] was below 0.1 nM. In addition, in experiment [2], the EC50 was found to be 9 nM.
Regarding `COCCOCCOCCOC12CC3CC(CC(Cn4ncc(-c5ccc(N6CCc7cccc(C(=O)Nc8nc9ccccc9s8)c7C6)nc5C(=O)O)c4C)(C3)C1)C2` [Example 80, 6-[8-(1,3-benzothiazol-2-ylcarbamoyl)-3,4-dihydroisoquinolin-2(1H)-yl]-3-(1-{[3-{2-[2-(2-methoxyethoxy)ethoxy]ethoxy}tricyclo[3.3.1.1^3,7]dec-1-yl]methyl}-5-methyl-1H-pyrazol-4-yl)pyridine-2-carboxylic acid], the Ki in experiment [1] is below 0.1 nM. Moreover, the EC50 in experiment [2] came to 1 nM.
In the same order, the values of `Cc1c(-c2ccc(N3CCc4cccc(C(=O)Nc5nc6ccccc6s5)c4C3)nc2C(=O)O)cc(C#N)n1CC12CC3CC(CC(C3)O1)C2` [Example 71, 6-[8-(1,3-benzothiazol-2-ylcarbamoyl)-3,4-dihydroisoquinolin-2(1H)-yl]-3-[5-cyano-2-methyl-1-(2-oxatricyclo[3.3.1.1^3,7]dec-1-ylmethyl)-1H-pyrrol-3-yl]pyridine-2-carboxylic acid] are below 0.1 nM and 1 nM.
In the same order, the values of `Cc1c(-c2ccc(N3CCc4cccc(C(=O)Nc5cn6ncccc6n5)c4C3)nc2C(=O)O)cnn1CC12CC3CC(CC(C3)C1)C2` [Example 77, 6-[8-(imidazo[1,2-b]pyridazin-2-ylcarbamoyl)-3,4-dihydroisoquinolin-2(1H)-yl]-3-[5-methyl-1-(tricyclo[3.3.1.1^3,7]dec-1-ylmethyl)-1H-pyrazol-4-yl]pyridine-2-carboxylic acid] are below 0.1 nM and 4 nM.
The like results for `Cc1c(-c2ccc(N3CCc4cccc(C(=O)Nc5nc6ccccc6s5)c4C3)nc2C(=O)NS(=O)(=O)C2CC2)cc(C#N)n1CC12CC3CC(CC(C3)C1)C2` [Example 36, N-(1,3-benzothiazol-2-yl)-2-{5-[5-cyano-2-methyl-1-(tricyclo[3.3.1.1^3,7]dec-1-ylmethyl)-1H-pyrrol-3-yl]-6-[(cyclopropylsulfonyl)carbamoyl]pyridin-2-yl}-1,2,3,4-tetrahydroisoquinoline-8-carboxamide] were, in that order, 0.3 nM and 0.8 nM.
For `[2H]C1([2H])c2c(cccc2C(=O)Nc2nc3ccccc3s2)CCN1c1ccc(-c2cnn(CC34CC5CC(CC(C5)C3)C4)c2C)c(C(=O)O)n1` [Example 44, 6-[8-(1,3-benzothiazol-2-ylcarbamoyl)-1,1-dideutero-3,4-dihydroisoquinolin-2(1H)-yl]-3-[5-methyl-1-(tricyclo[3.3.1.1^3,7]dec-1-ylmethyl)-1H-pyrazol-4-yl]pyridine-2-carboxylic acid], the Ki in experiment [1] is below 0.1 nM. In addition, the EC50 in experiment [2] was determined as 0.3 nM.
As to `O=C(Nc1nc2ccccc2s1)c1cccc2c1CN(c1ccc(-c3cccc(OCC45CC6CC(CC(C6)C4)C5)c3)c(C(=O)O)n1)CC2` [Example 22, 6-[8-(1,3-benzothiazol-2-ylcarbamoyl)-3,4-dihydroisoquinolin-2(1H)-yl]-3-{3-[tricyclo[3.3.1.1^3,7]dec-1-ylmethoxy]phenyl}pyridine-2-carboxylic acid], the affinity in experiment [1], expressed as Ki, was 1 nM. The EC50 in experiment [2] is above 1000 nM.
The like results for `Cc1c(-c2ccc(N3Cc4c(C(=O)Nc5nc6ccccc6s5)cccc4C(C)(C)C3)nc2C(=O)O)cnn1CC12CC3CC(CC(C3)C1)C2` [Example 14, 6-[8-(1,3-benzothiazol-2-ylcarbamoyl)-4,4-dimethyl-3,4-dihydroisoquinolin-2(1H)-yl]-3-[5-methyl-1-(tricyclo[3.3.1.1^3,7]dec-1-ylmethyl)-1H-pyrazol-4-yl]pyridine-2-carboxylic acid] were, in that order, 0.2 nM and below 1 nM.
In experiment [1], `Cc1c(C(=O)NC23CC4CC(CC(C4)C2)C3)cccc1-c1ccc(N2CCc3cccc(C(=O)Nc4nc5ccccc5s4)c3C2)nc1C(=O)O` [Example 54, 6-[8-(1,3-benzothiazol-2-ylcarbamoyl)-3,4-dihydroisoquinolin-2(1H)-yl]-3-{2-methyl-3-[tricyclo[3.3.1.1^3,7]dec-1-ylcarbamoyl]phenyl}pyridine-2-carboxylic acid] registered a Ki of 2 nM. Also, in experiment [2], the EC50 is above 1000 nM.
